Assay results reported in US8952024B2, “Herbicidal pyrimidone derivatives” (E I du Pont de Nemours and Company, priority 2009, dated 2015).

Key:
Test in all cases: Test B pre-/postemergence plant response
Format in all cases: in vivo
[1] = test system: Italian ryegrass (Lolium multiflorum); conditions: Postemergence
Text: (§1) Seeds of plant species selected from blackgrass (Alopecurus myosuroides), downy bromegrass (Bromus tectorum), green foxtail (Setaria viridis), Italian ryegrass (Lolium multiflorum), wheat (Triticum aestivum), wild oat (Avena fatua), deadnettle (henbit deadnettle, Lamium amplexicaule), galium (catchweed bedstraw, Galium aparine), bermudagrass (Cynodon dactylon), Surinam grass (Brachiaria decumbens), cocklebur (Xanthium strumarium), corn (Zea mays), large crabgrass (Digitaria sanguinalis), woolly cupgrass (Eriochloa villosa), giant foxtail (Setaria faberii), goosegrass (Eleusine indica), johnsongrass (Sorghum halepense), kochia (Kochia scoparia), lambsquarters (Chenopodium album), morningglory (Ipomoea coccinea), nightshade (eastern black nightshade, Solanum ptycanthum), yellow nutsedge (Cyperus esculentus), pigweed (Amaranthus retroflexus), ragweed (common ragweed, Ambrosia elatior), Russian thistle (Salsola kali), soybean (Glycine max), sunflower (common oilseed sunflower, Helianthus annuus) and velvetleaf (Abutilon theophrasti) were planted into a blend of loam soil and sand and treated preemergence with test compounds formulated in a non-phytotoxic solvent mixture which included a surfactant.
(§2) At the same time, plants selected from these crop and weed species and also winter barley (Hordeum vulgare), canarygrass (Phalaris minor), chickweed (Stellaria media) and windgrass (Apera spica-venti) were planted in pots containing Redi-Earth® planting medium (Scotts Company, 14111 Scottslawn Road, Marysville, Ohio 43041) comprising spaghnum peat moss, vermiculite, wetting agent and starter nutrients and treated with postemergence applications of some of the test chemicals formulated in the same manner. Plants ranged in height from 2 to 18 cm (1- to 4-leaf stage) for postemergence treatments.
(§3) Treated plants and controls were maintained in a greenhouse for 13 to 15 days, after which time all treated plants were visually evaluated and compared to controls. Plant response ratings, summarized in Table B, are based on a scale of 0 to 100 where 0 is no effect and 100 is complete control. A dash (-) response means no test result.

[2] = test system: Surinam grass (Brachiaria decumbens); conditions: Postemergence
Text: as §1, §2, §3

[3] = test system: blackgrass (Alopecurus myosuroides); conditions: for Plant response rating, Blackgrass: Postemergence; for Blackgrass plant response rating (0 to 100 scale): postemergence, 0 is no effect, 100 is complete control
Text: as §1, §2, §3

corn (Zea mays) = conditions: Postemergence
Text: as §1, §2, §3

[4] = test system: downy bromegrass (Bromus tectorum); conditions: for Plant response rating, Bromegrass, Downy: Postemergence; for Bromegrass, Downy plant response rating (0 to 100 scale): postemergence, 0 is no effect, 100 is complete control
Text: as §1, §2, §3

[5] = test system: giant foxtail (Setaria faberii); conditions: Postemergence
Text: as §1, §2, §3

[6] = test system: johnsongrass (Sorghum halepense); conditions: Postemergence
Text: as §1, §2, §3

kochia (Kochia scoparia) = conditions: Postemergence
Text: as §1, §2, §3

[7] = test system: pigweed (Amaranthus retroflexus); conditions: Postemergence
Text: as §1, §2, §3

soybean (Glycine max) = conditions: Postemergence
Text: as §1, §2, §3

[8] = test system: velvetleaf (Abutilon theophrasti); conditions: Postemergence
Text: as §1, §2, §3

[9] = test system: woolly cupgrass (Eriochloa villosa); conditions: Postemergence
Text: as §1, §2, §3

[10] = 31 g ai/ha, 0 to 100 scale (0 no effect, 100 complete control)
[11] = 62 g ai/ha, scale 0 to 100 (0 no effect, 100 complete control)
[12] = 125 g ai/ha, scale 0 to 100 (0 no effect, 100 complete control)
[13] = 250 g ai/ha, scale 0 to 100 (0 no effect, 100 complete control), 13 to 15 days

Cc1cc(-n2c(-c3cccc(F)c3)ncc(C(=O)C3=C(O)CCCC3=O)c2=O)ccc1F [Compound 191]
Plant response rating, Ryegrass, Italian [1, 10]: 40 | Plant response rating, Ryegrass, Italian [1, 11]: 40 | Plant response rating, Ryegrass, Italian [1, 12]: 50 | Plant response rating, Ryegrass, Italian [1, 13]: 50 | Plant response rating, Surinam Grass [2, 10]: 70 | Plant response rating, Surinam Grass [2, 11]: 85 | Plant response rating, Surinam Grass [2, 12]: 90 | Plant response rating, Surinam Grass [2, 13]: 98 | Plant response rating, Blackgrass [3, 10]: 30 | Plant response rating, Blackgrass [3, 11]: 45 | Plant response rating, Blackgrass [3, 12]: 50 | Plant response rating, Blackgrass [3, 13]: 60 | Plant response rating, Corn (corn (Zea mays); [10]): 65 | Plant response rating, Corn (corn (Zea mays); [11]): 75 | Plant response rating, Corn (corn (Zea mays); [12]): 75 | Plant response rating, Corn (corn (Zea mays); [13]): 85 | Plant response rating, Bromegrass, Downy [4, 10]: 35 | Plant response rating, Bromegrass, Downy [4, 11]: 40 | Plant response rating, Bromegrass, Downy [4, 12]: 50 | Plant response rating, Bromegrass, Downy [4, 13]: 75 | Plant response rating, Foxtail, Giant [5, 10]: 100 | Plant response rating, Foxtail, Giant [5, 11]: 100 | Plant response rating, Foxtail, Giant [5, 12]: 100 | Plant response rating, Foxtail, Giant [5, 13]: 100 | Plant response rating, Johnsongrass [6, 10]: 70 | Plant response rating, Johnsongrass [6, 11]: 100 | Plant response rating, Johnsongrass [6, 12]: 100 | Plant response rating, Johnsongrass [6, 13]: 100 | Plant response rating, Kochia (kochia (Kochia scoparia); [10]): 5 | Plant response rating, Kochia (kochia (Kochia scoparia); [11]): 10 | Plant response rating, Kochia (kochia (Kochia scoparia); [12]): 25 | Plant response rating, Kochia (kochia (Kochia scoparia); [13]): 35 | Plant response rating, Pigweed [7, 10]: 80 | Plant response rating, Pigweed [7, 11]: 85 | Plant response rating, Pigweed [7, 12]: 98 | Plant response rating, Pigweed [7, 13]: 100 | Plant response rating, Soybean (soybean (Glycine max); [10]): 90 | Plant response rating, Soybean (soybean (Glycine max); [11]): 95 | Plant response rating, Soybean (soybean (Glycine max); [12]): 100 | Plant response rating, Soybean (soybean (Glycine max); [13]): 100 | Plant response rating, Velvetleaf [8, 10]: 75 | Plant response rating, Velvetleaf [8, 11]: 80 | Plant response rating, Velvetleaf [8, 12]: 90 | Plant response rating, Velvetleaf [8, 13]: 100 | Plant response rating, Cupgrass, Woolly [9, 10]: 85 | Plant response rating, Cupgrass, Woolly [9, 11]: 90 | Plant response rating, Cupgrass, Woolly [9, 12]: 90 | Plant response rating, Cupgrass, Woolly [9, 13]: 98

CCCn1c(-c2cccc(Cl)c2)ncc(C(=O)C2=C(O)CCCC2=O)c1=O [Compound 190]
Plant response rating, Ryegrass, Italian [1, 10]: 0 | Plant response rating, Ryegrass, Italian [1, 12]: 20 | Plant response rating, Ryegrass, Italian [1, 13]: 30 | Plant response rating, Surinam Grass [2, 10]: 60 | Plant response rating, Surinam Grass [2, 12]: 75 | Plant response rating, Surinam Grass [2, 13]: 90 | Blackgrass plant response rating (0 to 100 scale) ([3]; 62 g ai/ha, 13 to 15 days): 30 | Plant response rating, Blackgrass [3, 10]: 5 | Plant response rating, Blackgrass [3, 12]: 35 | Plant response rating, Blackgrass [3, 13]: 40 | Plant response rating, Corn (corn (Zea mays); [10]): 0 | Plant response rating, Corn (corn (Zea mays); [12]): 40 | Plant response rating, Corn (corn (Zea mays); [13]): 65 | Bromegrass, Downy plant response rating (0 to 100 scale) ([4]; 62 g ai/ha, 13 to 15 days): 30 | Plant response rating, Bromegrass, Downy [4, 10]: 5 | Plant response rating, Bromegrass, Downy [4, 12]: 35 | Plant response rating, Bromegrass, Downy [4, 13]: 35 | Plant response rating, Foxtail, Giant [5, 10]: 70 | Plant response rating, Foxtail, Giant [5, 12]: 90 | Plant response rating, Foxtail, Giant [5, 13]: 95 | Plant response rating, Johnsongrass [6, 10]: 60 | Plant response rating, Johnsongrass [6, 12]: 75 | Plant response rating, Johnsongrass [6, 13]: 80 | Plant response rating, Kochia (kochia (Kochia scoparia); [10]): 0 | Plant response rating, Kochia (kochia (Kochia scoparia); [12]): 98 | Plant response rating, Kochia (kochia (Kochia scoparia); [13]): 98 | Plant response rating, Pigweed [7, 10]: 65 | Plant response rating, Pigweed [7, 12]: 100 | Plant response rating, Pigweed [7, 13]: 100 | Plant response rating, Soybean (soybean (Glycine max); [10]): 80 | Plant response rating, Soybean (soybean (Glycine max); [12]): 95 | Plant response rating, Soybean (soybean (Glycine max); [13]): 98 | Plant response rating, Velvetleaf [8, 10]: 100 | Plant response rating, Velvetleaf [8, 12]: 100 | Plant response rating, Velvetleaf [8, 13]: 100 | Plant response rating, Cupgrass, Woolly [9, 10]: 75 | Plant response rating, Cupgrass, Woolly [9, 12]: 80 | Plant response rating, Cupgrass, Woolly [9, 13]: 85

Cc1ccc(Cl)cc1-n1c(-c2cccc(F)c2)ncc(C(=O)C2=C(O)CCCC2=O)c1=O [Compound 184]
Plant response rating, Ryegrass, Italian [1, 10]: 20 | Plant response rating, Ryegrass, Italian [1, 12]: 45 | Plant response rating, Ryegrass, Italian [1, 13]: 60 | Plant response rating, Surinam Grass [2, 10]: 80 | Plant response rating, Surinam Grass [2, 12]: 100 | Plant response rating, Surinam Grass [2, 13]: 100 | Blackgrass plant response rating (0 to 100 scale) ([3]; 62 g ai/ha, 13 to 15 days): 35 | Plant response rating, Blackgrass [3, 10]: 30 | Plant response rating, Blackgrass [3, 12]: 40 | Plant response rating, Blackgrass [3, 13]: 50 | Plant response rating, Corn (corn (Zea mays); [10]): 80 | Plant response rating, Corn (corn (Zea mays); [12]): 85 | Plant response rating, Corn (corn (Zea mays); [13]): 98 | Bromegrass, Downy plant response rating (0 to 100 scale) ([4]; 62 g ai/ha, 13 to 15 days): 50 | Plant response rating, Bromegrass, Downy [4, 10]: 40 | Plant response rating, Bromegrass, Downy [4, 12]: 50 | Plant response rating, Bromegrass, Downy [4, 13]: 60 | Plant response rating, Foxtail, Giant [5, 10]: 98 | Plant response rating, Foxtail, Giant [5, 12]: 100 | Plant response rating, Foxtail, Giant [5, 13]: 100 | Plant response rating, Johnsongrass [6, 10]: 100 | Plant response rating, Johnsongrass [6, 12]: 100 | Plant response rating, Johnsongrass [6, 13]: 100 | Plant response rating, Kochia (kochia (Kochia scoparia); [10]): 0 | Plant response rating, Kochia (kochia (Kochia scoparia); [12]): 5 | Plant response rating, Kochia (kochia (Kochia scoparia); [13]): 10 | Plant response rating, Pigweed [7, 10]: 70 | Plant response rating, Pigweed [7, 12]: 75 | Plant response rating, Pigweed [7, 13]: 100 | Plant response rating, Soybean (soybean (Glycine max); [10]): 98 | Plant response rating, Soybean (soybean (Glycine max); [12]): 100 | Plant response rating, Soybean (soybean (Glycine max); [13]): 100 | Plant response rating, Velvetleaf [8, 10]: 85 | Plant response rating, Velvetleaf [8, 12]: 100 | Plant response rating, Velvetleaf [8, 13]: 100 | Plant response rating, Cupgrass, Woolly [9, 10]: 75 | Plant response rating, Cupgrass, Woolly [9, 12]: 100 | Plant response rating, Cupgrass, Woolly [9, 13]: 100
